The record followed here is patent US11091522B2, “Peptidomimetic macrocycles and uses thereof” (priority 2018, dated 2021).

In one series the target is T1, MDMX (Homo sapiens, UniProt O15151).
T1 sequence (O15151 1-125): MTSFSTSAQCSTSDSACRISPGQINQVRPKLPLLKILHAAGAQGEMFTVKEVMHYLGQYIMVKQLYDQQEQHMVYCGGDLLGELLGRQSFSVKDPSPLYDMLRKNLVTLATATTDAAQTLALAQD
Description: Competitive fluorescence polarization assay for MDMX. It is filed as binding.

In another series the target is MDM2 (Homo sapiens, UniProt Q00987). Description: Competitive fluorescence polarization assay for MDM2. It counts as binding.
MDM2, sequence (Q00987 1-125): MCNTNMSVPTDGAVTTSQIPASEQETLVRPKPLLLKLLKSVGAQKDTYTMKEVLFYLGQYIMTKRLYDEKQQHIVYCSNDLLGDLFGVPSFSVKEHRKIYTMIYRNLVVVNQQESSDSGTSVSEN
Series [1] in a line: Circular dichroism (CD) analysis of alpha-helicity. It is filed as physicochemical. The settings on record: difference 50% TFE minus benign. As to the method: Peptide solutions were analyzed by CD spectroscopy using a spectropolarimeter. A temperature controller was used to maintain temperature control of the optical cell. Results are expressed as mean molar ellipticity [θ] (deg cm^2 dmol^−1) as calculated from the equation [θ]=θobs·MRW/10*l*c where θobs is the observed ellipticity in millidegrees, MRW is the mean residue weight of the peptide (peptide molecular weight/number of residues), 1 is the optical path length of the cell in centimeters, and c is the peptide concentration in mg/ml. Peptide concentrations were determined by amino acid analysis. Stock solutions of peptides were prepared in benign CD buffer (20 mM phosphoric acid, pH 2). The stock solutions were used to prepare peptide solutions of 0.05 mg/ml in either benign CD buffer or CD buffer with 50% trifluoroethanol (TFE) for analyses in a 10 mm path length cell. Variable wavelength measurements of peptide solutions were scanned at 4° C. from 195 to 250 nm, in 0.2 nm increments, and a scan rate 50 nm per minute. The average of six scans is reported.

The mark [2] stands for this setting: competitive fluorescence polarization, MDMX, read-out: Ki (MDMX).
The mark [3] stands for this setting: competitive fluorescence polarization, MDM2, read-out: Ki (MDM2).

Read-outs that look alike come from different tables or passages of the source. Bridge positions count the residues as written; N and C are the ends. Square brackets hold non-standard residues; d marks the D form. Peptide text beside a SMILES is read from it. R8 = C=CCCCCCC[C@@](C)(N)C(=O)O; S5 = C=CCCC[C@](C)(N)C(=O)O; Nle = CCCC[C@H](N)C(=O)O; Aib = CC(C)(N)C(=O)O

Description for MDM2: 1 mM of FAM-labeled linear peptide (in 100% DMSO) was diluted to 100 μM with DMSO (dilution 1:10). Then, diluted solution was further diluted from 100 μM to 10 μM with water (dilution 1:10), and diluted again with FP buffer from 10 μM to 40 nM (dilution 1:250). […] The diluted FAM-labeled peptides were kept in the dark until use.
Unlabeled peptide dose plates were prepared with FP buffer starting with 1 μM (final) of the peptide. […] 10 mM of the solution (in 100% DMSO) with DMSO to 5 mM (dilution 1:2); dilution from 5 mM to 500 μM with H2O (dilution 1:10); and dilution with FP buffer from 500 μM to 20 μM (dilution 1:25). […] 10 μl of 10 nM (4×) of FAM-labeled peptide was added into each well, and the wells were incubated for 3 h before being read.
Description for MDMX: MDMX (40 kD) was diluted into FP buffer (high-salt buffer 200 mM NaCl, 5 mM CHAPS, pH 7.5) to make a 300 nM (2×) working stock solution. 20 μl of the 300 nM (2×) of protein stock solution was added into each well of 96-well black microplate. 1 mM (in 100% DMSO) of a FAM-labeled linear peptide was diluted with DMSO to a concentration of 100 μM (dilution 1:10). The solution was diluted from 100 M to 10 M with water (dilution 1:10), and diluted further with FP buffer from 10 μM to 40 nM (dilution 1:250). […] The diluted FAM-labeled peptide was kept in the dark until use. An unlabeled peptide dose plate was prepared with FP buffer starting with a concentration of 5 μM (final) of a peptide. […] 10 mM (in 100% DMSO) of the solution was diluted with DMSO to prepare a 5 mM (dilution 1:2) solution. The solution was diluted from 5 mM to 500 μM with H2O (dilution 1:10), and diluted further with FP buffer from 500 μM to 20 μM (dilution 1:25). […] 10 μl of the serially diluted unlabeled peptides were added to each well, which was filled with 20 μl of the 300 nM protein solution. 10 μl of the 10 nM (4×) FAM-labeled peptide solution was added into each well, and the wells were incubated for 3 h before reading.

As for `CC(C)C[C@H](NC(=O)CN(C)C)C(=O)N[C@H](C(=O)N[C@@H](Cc1ccccc1)C(=O)N[C@]1(C)CCCCCC/C=C/CCC[C@@](C)(C(=O)N[C@@H](C)C(=O)N[C@@H](C)C(=O)N[C@@H](C)C(=O)N[C@@H](C)C(=O)N[C@@H](C)C(=O)N[C@H](C)C(N)=O)NC(=O)[C@H](CC(C)C)NC(=O)[C@H](CCC(N)=O)NC(=O)[C@H](C)NC(=O)[C@H](Cc2c[nH]c3ccccc23)NC(=O)[C@H](Cc2ccc(O)cc2)NC(=O)[C@H](C)NC1=O)[C@@H](C)O` [compound 437], on MDMX, the IC50 fell in the range of 10 to 100 nM and the Ki lay within 10 to 100 nM. Besides, at MDM2, the 50% inhibitory concentration (IC50) was in the range of 10 to 100 nM and the Ki is less than 10 nM. Regarding `CC(=O)N[C@@H](CC(C)C)C(=O)N[C@H](C(=O)N[C@@H](Cc1ccccc1)C(=O)N[C@]1(C)CCCCCCC=CCCC[C@@](C)(C(=O)N[C@@H](Cc2c[nH]cn2)C(=O)N[C@@H](Cc2c[nH]cn2)C(=O)N[C@@H](CC(C)C)C(=O)N[C@H](C)C(N)=O)NC(=O)[C@H](CC(C)C)NC(=O)[C@H](CCC(N)=O)NC(=O)[C@H](C)NC(=O)[C@H](Cc2c[nH]c3ccccc23)NC(=O)[C@H](Cc2ccc(O)cc2)NC(=O)[C@H](C)NC1=O)[C@@H](C)O` [compound 43] (Ac-LTF[R8]AYWAQL[S5]HHL[dA]-NH2; staple 4-11), in series [1], the “Molar Ellipticity TFE-Molar Ellipticity Benign” value is 2912.9 deg cm^2 dmol^−1. Take `CC(=O)N[C@@H](CC(C)C)C(=O)N[C@H](C(=O)N[C@@H](Cc1ccccc1)C(=O)N[C@]1(C)CCCCCCC=CCCC[C@@](C)(C(=O)N[C@@H](CO)C(=O)N[C@@H](C)C(=O)N[C@@H](Cc2ccccc2)C(N)=O)NC(=O)[C@H](CC(C)C)NC(=O)[C@H](CCC(N)=O)NC(=O)[C@H](C)NC(=O)[C@H](Cc2c[nH]c3ccccc23)NC(=O)[C@H](Cc2ccc(O)cc2)NC(=O)[C@H](C)NC1=O)[C@@H](C)O` [compound 7] (Ac-LTF[R8]AYWAQL[S5]SAF-NH2; staple 4-11): the “Molar Ellipticity TFE-Molar Ellipticity Benign” value in series [1] is listed as −20045.4 deg cm^2 dmol^−1.

`CC(=O)N[C@@H](CC(C)C)C(=O)N[C@H](C(=O)N[C@@H](Cc1ccccc1)C(=O)N[C@]1(C)CCCCCCC=CCCC[C@@](C)(C(=O)N[C@@H](C)C(=O)N[C@@H](C)C(=O)N[C@@H](C)C(=O)N[C@H](C)C(N)=O)NC(=O)[C@H](CC(C)C)NC(=O)[C@H](CCC(N)=O)NC(=O)[C@H](C)NC(=O)[C@H](Cc2c[nH]c3ccccc23)NC(=O)[C@H](Cc2ccc(O)cc2)NC(=O)[C@H](C)NC1=O)[C@@H](C)O` (single isomer, unassigned) [compound 230]: the “Molar Ellipticity TFE-Molar Ellipticity Benign” value in series [1] is listed as −17760.8 deg cm^2 dmol^−1. For `CC(=O)N[C@@H](CC(C)C)C(=O)N[C@H](C(=O)N[C@@H](Cc1ccccc1)C(=O)N[C@]1(C)CCCCCC/C=C/CCC[C@@](C)(C(=O)N[C@@H](C)C(=O)N[C@@H](C)C(=O)N[C@@H](C)C(=O)NC(C)(C)C(=O)N[C@@H](C)C(=O)N[C@H](C)C(N)=O)NC(=O)[C@H](CC(C)C)NC(=O)[C@H](CCC(N)=O)NC(=O)[C@H](C)NC(=O)[C@H](Cc2c[nH]c3ccccc23)NC(=O)[C@H](Cc2ccc(O)cc2)NC(=O)[C@H](CCC(=O)O)NC1=O)[C@@H](C)O` [compound 564] (Ac-LTF[R8]EYWAQL[S5]AAA[Aib]A[dA]-NH2; staple (E) 4-11), the Ki on MDMX (setting [2]) is 10 to 100 nM; at MDM2 (setting [3]), less than 10 nM. With `CC(=O)N[C@@H](CC(C)C)C(=O)N[C@H](C(=O)N[C@@H](Cc1ccccc1)C(=O)N[C@]1(C)CCCCCC/C=C/CCC[C@@](C)(C(=O)N[C@@H](C)C(=O)N[C@@H](C)C(=O)N[C@@H](C)C(=O)N[C@@H](C)C(=O)N[C@@H](C)C(=O)N[C@H](C)C(N)=O)NC(=O)[C@H](CC(C)C)NC(=O)[C@H](CCC(N)=O)NC(=O)[C@H](C)NC(=O)[C@H](Cc2c[nH]c3cc(Cl)ccc23)NC(=O)[C@H](Cc2ccc(O)cc2)NC(=O)[C@H](CCC(=O)O)NC1=O)[C@@H](C)O` [compound 555], the Ki on MDMX was 10 to 100 nM; at MDM2, less than 10 nM. Turning to `CC(=O)N[C@@H](CC(C)C)C(=O)N[C@H](C(=O)N[C@@H](Cc1ccccc1)C(=O)N[C@]1(C)CCCCCC/C=C/CCC[C@@](C)(C(=O)N[C@@H](C)C(=O)N[C@@H](C)C(=O)N[C@@H](C)C(=O)N[C@@H](C)C(=O)N[C@@H](C)C(=O)N(C)CC(N)=O)NC(=O)[C@H](CC(C)C)NC(=O)[C@H](CCC(N)=O)NC(=O)[C@H](C)NC(=O)[C@H](Cc2c[nH]c3ccccc23)NC(=O)[C@H](Cc2ccc(O)cc2)NC(=O)[C@H](CCC(=O)O)NC1=O)[C@@H](C)O` [compound 578], the Ki was 10 to 100 nM on MDMX (setting [2]) and less than 10 nM on MDM2 (setting [3]).

For `CC(=O)N[C@@H](CC(C)C)C(=O)N[C@H](C(=O)N[C@@H](Cc1ccc(F)c(F)c1)C(=O)N[C@]1(C)CCCCCC/C=C/CCC[C@@](C)(C(=O)N[C@@H](C)C(=O)N[C@@H](C)C(=O)N[C@@H](C)C(=O)N[C@@H](C)C(=O)N[C@@H](C)C(=O)N[C@H](C)C(N)=O)NC(=O)[C@H](CC(C)C)NC(=O)[C@H](CCC(N)=O)NC(=O)[C@H](C)NC(=O)[C@H](Cc2c[nH]c3ccccc23)NC(=O)[C@H](Cc2ccc(O)cc2)NC(=O)[C@H](CCC(=O)O)NC1=O)[C@@H](C)O` [compound 558], the Ki on MDMX and on MDM2 was 10 to 100 nM each time.

For `CC(=O)N[C@@H](CC(C)C)C(=O)N[C@H](C(=O)N[C@@H](Cc1ccccc1)C(=O)N[C@]1(C)CCCCCC/C=C/CCC[C@@](C)(C(=O)N[C@@H](C)C(=O)N[C@@H](C)C(=O)N[C@@H](C)C(=O)N[C@@H](C)C(=O)N[C@@H](C)C(=O)NC(C)(C)C(N)=O)NC(=O)[C@H](CC(C)C)NC(=O)[C@H](CCC(N)=O)NC(=O)[C@H](C)NC(=O)[C@H](Cc2c[nH]c3ccccc23)NC(=O)[C@H](Cc2ccc(O)cc2)NC(=O)[C@H](CCC(=O)O)NC1=O)[C@@H](C)O` [compound 567], the results for the Ki at MDMX (setting [2]) and on MDM2 (setting [3]) were 10 to 100 nM and less than 10 nM, respectively.

As for `CCCC[C@H](NC(=O)[C@H](CCC(N)=O)NC(=O)[C@H](CCC(N)=O)NC(=O)[C@]1(C)CCCC=CCCCCCC[C@@](C)(NC(=O)[C@H](Cc2ccccc2)NC(C)=O)C(=O)N[C@@H](C)C(=O)N[C@@H](Cc2ccc(O)cc2)C(=O)N[C@@H](Cc2c[nH]c3ccccc23)C(=O)N[C@@H]([C@@H](C)O)C(=O)N[C@@H](C)C(=O)N[C@@H](CC(C)C)C(=O)N1)C(=O)N[C@@H](C(N)=O)C(C)C` [compound 41] (Ac-F[R8]AYWTAL[S5]QQ[Nle][dV]-NH2; staple 2-9), the “Molar Ellipticity TFE-Molar Ellipticity Benign” value in series [1] came to 20410.4 deg cm^2 dmol^−1. With `CC[C@H](C)[C@H](NC(=O)[C@H](C)NC(=O)[C@H](C)NC(=O)[C@]1(C)CCC/C=C/CCCCCC[C@@](C)(NC(=O)[C@H](Cc2ccccc2)NC(=O)[C@@H](NC(=O)[C@H](CC(C)C)NC(C)=O)[C@@H](C)O)C(=O)N[C@@H](C)C(=O)N[C@@H](Cc2ccc(O)cc2)C(=O)N[C@@H](Cc2c[nH]c3ccccc23)C(=O)N[C@@H](C)C(=O)N[C@@H](CCC(N)=O)C(=O)N[C@@H](CC(C)C)C(=O)N1)C(=O)N[C@H](C)C(N)=O` [compound 71], the “Molar Ellipticity TFE-Molar Ellipticity Benign” value in series [1] is −17835.9 deg cm^2 dmol^−1. Same read-out and setting: the figure for `CCCC[C@H](NC(=O)[C@H](C)NC(=O)[C@H](C)NC(=O)[C@]1(C)CCC/C=C/CCCCCC[C@@](C)(NC(=O)[C@H](Cc2ccccc2)NC(=O)[C@@H](NC(=O)[C@H](CC(C)C)NC(C)=O)[C@@H](C)O)C(=O)N[C@@H](C)C(=O)N[C@@H](Cc2ccc(O)cc2)C(=O)N[C@@H](Cc2c[nH]c3ccccc23)C(=O)N[C@@H](C)C(=O)N[C@@H](CCC(N)=O)C(=O)N[C@@H](CC(C)C)C(=O)N1)C(=O)N[C@@H](C)C(N)=O` [compound 69] is −21407.1 deg cm^2 dmol^−1; for `CC(=O)N[C@@H](CC(C)C)C(=O)N[C@H](C(=O)N[C@@H](Cc1ccccc1)C(=O)N[C@]1(C)CCCCCCC=CCCC[C@@](C)(C(=O)N[C@@H](CO)C(=O)N[C@@H](C)C(=O)N[C@@H](C)C(N)=O)NC(=O)[C@H](CC(C)C)NC(=O)[C@H](CCC(N)=O)NC(=O)[C@H](C)NC(=O)[C@H](Cc2c[nH]c3ccccc23)NC(=O)[C@H](Cc2ccc(O)cc2)NC(=O)[C@H](C)NC1=O)[C@@H](C)O` [compound 11] (Ac-LTF[R8]AYWAQL[S5]SAA-NH2; staple 4-11) it is 16225.2 deg cm^2 dmol^−1.

As for `CC(=O)N[C@@H](CC(C)C)C(=O)N[C@H](C(=O)N[C@@H](Cc1ccc(F)c(F)c1)C(=O)N[C@]1(C)CCCCCC/C=C/CCC[C@@](C)(C(=O)N[C@@H](CO)C(=O)N[C@@H](C)C(=O)N[C@@H](C)C(N)=O)NC(=O)[C@H](CCC(C)C)NC(=O)[C@H](CCC(N)=O)NC(=O)[C@H](C)NC(=O)[C@H](Cc2c[nH]c3ccccc23)NC(=O)[C@H](Cc2ccc(O)cc2)NC(=O)[C@H](CCC(=O)O)NC1=O)[C@@H](C)O` [compound 160], the IC50 is […] on MDMX (competitive fluorescence polarization, MDMX, read-out: IC50 (MDMX)) and […] on MDM2 (competitive fluorescence polarization, MDM2, read-out: IC50 (MDM2)). Moreover, the Ki at MDMX (setting [2]) was […]; on MDM2 (setting [3]), […]. As to `CC(=O)N[C@@H](CC(C)C)C(=O)N[C@H](C(=O)N[C@@H](Cc1ccccc1)C(=O)N[C@]1(C)CCCCCCC=CCCC[C@@](C)(C(=O)N[C@@H](C)C(=O)N[C@@H](C)C(=O)N[C@@H](C)C(=O)N[C@@H](C)C(=O)N[C@H](C)C(N)=O)NC(=O)[C@H](CC(C)C)NC(=O)[C@H](CCC(N)=O)NC(=O)[C@H](C)NC(=O)[C@H](Cc2c[nH]c3ccccc23)NC(=O)[C@H](Cc2ccc(O)cc2)NC(=O)[C@H](C)NC1=O)[C@@H](C)O` [compound 233], the “Molar Ellipticity TFE-Molar Ellipticity Benign” value in series [1] was −18554.7 deg cm^2 dmol^−1.
